For data set [1], the system named is M ccB. The data set is described as follows: MccB-catalyzed C-terminal thioesterification / Cys ligation of TeCH-tag fusion proteins (intact protein LC-MS). Type of data set: biochemical, E. coli. How it is done:
M ccB-mediated ligation of GFP-MccA-N7G protein substrates. GFP-M ccA-N7G variant (50 μM) was incubated with 5 μM MccB, 5 mM ATP, and the appropriate concentration of cysteine or Mesna/TCEP in reaction buffer (25 mM Tris pH 8.0, 10 mM M gCl2). Reactions were incubated at room temperature for the indicated times. For labeling time course experiments, reactions were quenched with the addition of an equivalent volume of 0.6% TFA.

The subject of data set [2] is M ccB. Kind of data set: One-pot expressed protein ligation of GFP-TeCH with N-terminal Cys peptide CGAGS-azidoAla. The data set is classed as biochemical, E. coli. Particulars: MccB, ATP, Mesna.
The test system of the next data set is LjM ccB. The data set is described as follows: C-terminal thioesterification of MccA-N7G peptides by L. johnsonii MccB (LC-MS). The data set is classed as biochemical. Particulars: LjMccB, ATP, Mesna, within 16 h.
Chain of LjM ccB (as listed by the source): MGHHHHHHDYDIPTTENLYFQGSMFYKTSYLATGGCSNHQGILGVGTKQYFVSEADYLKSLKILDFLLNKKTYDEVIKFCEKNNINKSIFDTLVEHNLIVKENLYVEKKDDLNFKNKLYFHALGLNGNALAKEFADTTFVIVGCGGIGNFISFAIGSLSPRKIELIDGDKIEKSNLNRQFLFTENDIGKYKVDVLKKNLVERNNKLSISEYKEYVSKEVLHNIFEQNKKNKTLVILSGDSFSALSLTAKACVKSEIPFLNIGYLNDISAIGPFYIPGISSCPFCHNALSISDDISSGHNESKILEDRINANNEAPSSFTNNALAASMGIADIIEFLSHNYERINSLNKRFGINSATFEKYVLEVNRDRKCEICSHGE
A further data set has as its target T1, Ubc9 (Homo sapiens, UniProt P63279).
T1 construct: Ubc9; Calc: 20,632 Da (M et loss); Observed: 20,632 Da, 20,810 Da (N-gluconylation); made in house; host or cells: E. coli BL21 (DE3)
The data set is described as follows: Ubc9-catalyzed lysine acylation (LACE) of GFP-LACE-tag with MccB-generated thioesters. Type of data set: biochemical. How it is done: For larger scale synthesis of MLGLRGG-Mes (HsLACE3-M es) (SEQ ID NO: 88), identical reaction conditions and reagent concentrations were used in a volume of […]. Reactions were quenched by addition of trifluoroacetic acid (TFA) to 1% final concentration and were desalted on SOLA HRP C18 solid-phase extraction columns (10 mg format, Thermo Fisher Scientific). Columns were conditioned with 100% acetonitrile ([…]) and equilibrated with 0.1% TFA (2× 1 mL). The acidified sample was then loaded onto the column. The column was washed with 0.1% TFA (2×1 mL) and eluted with 80% acetonitrile/20% water ([…]). The eluted peptide thioester was dried in a vacuum concentrator (SpeedV ac SPD 130DLX, Thermo Fisher Scientific) and dissolved in water. The recovered peptide was quantified using the Pierce Quantitative Fluorometric Peptide A ssay Kit (Thermo Fisher Scientific). Typical recovery from desalting was 50%.
Lysine acylation using conjugating enzymes (LACE) of GFP-LACE-tag using M ccB-generated thioesters. GFP-LACE-tag ([…]), U bc9 ([…]), MLGLRGG-Mes (SEQ ID NO: 88) or other C-terminal thioesters as indicated in the text ([…]) were incubated in reaction buffer (100 mM HEPES, pH 8.0, 50 mM K CI) at 30° C. for 16 h. For pH optimization, reaction buffer was either 100 mM HEPES, pH 7.6, 50 mM KCl or 100 mM HEPES, pH 8.0, 50 mM KCl. […]

Data set [3] relates to E. coli M ccB. The data set is described as follows: Enzyme-coupled pyrophosphate (PPi) release assay, E. coli MccB. Type of data set: biochemical. An excerpt: FIG. 31. Enzyme-coupled pyrophosphate assay for detection of M ccB-catalyzed pyrophosphate release. M ccB-catalyzes release of pyrophosphate, which is converted to phosphate by inorganic pyrophosphatase (PPiase). Purine nucleoside phosphorylase (PN Pase) uses phosphate as a substrate to convert 2-amino-6-mercapto-7-methylpurine ribonucleoside (M ESG) to ribose 1-phosphate and 2-amino-6-mercapto-7-methylpurine, which absorbs at 360 nm.
Purine nucleoside phosphorylase (PNP)/inorganic pyrophosphate (IP)-coupled kinetic assays. The kinetics of M ccB-catalyzed adenylation were characterized using an enzyme-coupled assay for detecting formation of pyrophosphate EnzCheck Pyrophosphate Assay Kit (Thermo Fisher Scientific) (FIG. 31). To screen M ccB for adenylation activity with C-terminal variants of MccA, 5 μM of the appropriate MccB variant was incubated with 0.25 mM of each M ccA variant in a reaction with 0.25 mM ATP, 5 mM M gCl2, 0.5 U/mL purine nucleoside phosphorylase (PNP), and 0.5 U/mL inorganic pyrophosphatase (IP). To screen E. coli, H. pylori, and L. johnsonii M ccB homologs for adenylation activity with MccA homologs, 5 μM of the appropriate MccB enzyme was incubated with 0.25 mM of each M ccA variant in a reaction with 0.25 mM ATP, 5 mM M gCI2, 0.5 U/mL purine nucleoside phosphorylase (PNP), and 0.5 U/mL inorganic pyrophosphatase (IP). Reactions containing HpM ccA-N7G and LjM ccA-N 7G peptides also contained 5 mM M esna and 5 mM TCEP. To collect steady-state kinetics data for individual peptide substrates, the peptide concentration was varied from 0-600 μM in a reaction with 5 μM MccB, 0.25 mM ATP, 5 mM MgCl2, 0.5 U/mL purine nucleoside phosphorylase (PNP), and 0.5 U/mL inorganic pyrophosphatase (IP). […] We therefore repeated measurements for the MccA-N7G peptide using an MccB concentration of […] and a substrate concentration range from 0-100 μM. Reactions were initiated with the addition of M ccB and absorbance at 360 nm was monitored using a Tecan Infinite M 200 plate reader. Initial rates of pyrophosphate production were calculated based on the initial rate of absorbance change and the resulting purine analog extinction coefficient (11,000 M-1 cm-1). Reactions were carried out in triplicate and data analysis was performed using GraphPad Prism 10.

Data set [4] has as its system E. coli M ccB. The data set is described as follows: LC-TOF MS analysis of MccB-catalyzed AMPylation of MccA variants. The data set is classed as biochemical. Particulars: HPLC-MS assay. On the procedure: LC-TOF MS analysis of M ccB reactions with synthetic peptide substrates. […] Reactions were incubated for 16 hours at room temperature and quenched with addition of an equivalent volume of 0.6% TFA. These reaction conditions were used for M ccBs from E. coli, H. pylori, L. johnsonii, and H. somni.
LC-TOF MS analysis of M ccB-catalyzed N-AM Pylation of M ccA positional scanning peptide library. MccA variants were synthesized individually in-house (according to Solid-phase peptide synthesis) or were purchased from Peptide2.0. […] Reactions were incubated for 16 hours at room temperature and quenched with addition of an equivalent volume of 0.6% TFA. […] Percent conversion was calculated using peak areas from substrate and product EICs. Raw data are available in the Dryad repository at DOI: 10.5061/dryad.c59zw3rkb.

Data set [5] deals with M ccB. Kind of data set: MccB-catalyzed native chemical ligation of MccA-N7G with Mesna and Cys-Trp. The data set is classed as biochemical, E. coli. Conditions: both Mesna and Cys-Trp in the reaction, 4 hours. How it is done:
MccA-N7G thioester exchange with N-terminal Cys peptide. C-terminal thioester was prepared in reactions containing 250 μM MccA-N7G, 5 μM MccB, 5 mM ATP, and 5 mM Mesna/TCEP in reaction buffer (25 mM Tris pH 8.0, 10 mM M gCl2). A fter incubating for 16 hours at room temperature, 20 mM Cys-Trp peptide was added to each reaction and incubated for an additional 4 hours. Reactions were quenched with the addition of an equivalent volume of 0.6% TFA.

The target of data set [6] is T2, MccA-N7G (E. coli TeCH-tag peptide MRTGNAG).
T2 chain: MRTGNAG

One may read the Km as the substrate concentration at which the rate is half of its maximum.

T1 sequence (P63279 with tags, fused parts or gaps): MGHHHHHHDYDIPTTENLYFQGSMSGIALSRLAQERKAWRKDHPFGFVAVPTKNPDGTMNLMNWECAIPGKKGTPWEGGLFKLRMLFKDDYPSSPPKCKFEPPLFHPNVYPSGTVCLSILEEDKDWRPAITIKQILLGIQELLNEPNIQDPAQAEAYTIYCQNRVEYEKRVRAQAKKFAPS

Regarding “GFP-TeCH-tag: Cys-free GFP fused to MccA-N7G TeCH-tag (SEQ ID NO: 73)”, the “conversion to the Mesna thioester” value in the data set on M ccB [1] (5 mM Mesna, 5 mM ATP, 30 min) is on record as “near-quantitative”. Besides, the Cys ligation yield in the data set on M ccB [1] (ATP (5 mM), Cys (5 mM), 1 h) is 99%. Besides, the “time to complete conversion to thioester” value in the data set on M ccB [1] (ATP (5 mM), Mesna (5 mM)) was 1 h. Further, the “modification with azide-bearing peptide CGAGS-3-azido-Ala” value in the data set with M ccB [2] is “quantitatively modified”.
As for MHRIM KG (MHRIMKG) [LjM ccA-N7G], in the data set on LjM ccB, the “conversion to C-terminal thioester, yield” value is over 97%.
With “MLGLRGG (listed as Histophilus somni) [HsLACE3]”, the “modification of the LACE-tagged protein” value with Ubc9 (HsMccB-generated thioester after C18 spin column thiol removal) is listed as 94%. In addition, the “conversion to modified GFP-LACE” value with Ubc9 (one-pot and telescoped HsMccB/Ubc9 reactions) is listed as 1-15%.
In the case of MRTGNAG [MccA-N7G], the “stimulation of PPi formation” value with E. coli M ccB [3] (MccA C-terminal variant as substrate for MccB) was “substantial stimulation”. In addition, the Km in the data set with E. coli M ccB [3] (initial fitting, 5 μM MccB, peptide 0-600 μM, pyrophosphate release, read-out: apparent KM) came out at 8.9 µM. In addition, the “formation of stably AMPylated product” value with E. coli M ccB [4] is recorded as “no stably A M Pylated product was observed”. Moreover, in the data set on M ccB [5], the “conversion to MccA-N7G-CW, yield” value is on record as 82%.

B1: E. coli MccB (protein)
chain: MGHHHHHHDYDIPTTENLYFQGSMDYILGRYVKIARYGSGGLVGGGGKEQYVEDLALWENIIKTAYCFITPSSYTAALETVNIPEKDFSNCFRFLKENFFIIPSEYNNSTENNRYSRNFLHYQSYGANPVLVQDKLKDAKVVILGCGGIGNHVSVILATSGIGEIILIDNDQIENTNLTRQVLFSENDVGKNKTEVIKRELLKRNSEISVSEIALNINDYTDLHKVPEADIWVVSADHPFNLINWVNKYCVRANQPYINAGYVNDIAVFGPLYVPGKTGCYECQKVVADLYGSEKENIDHKIKLINSRFKPATFAPVNNVAAALCAADVIKFIGKYSEPLSLNKRIGIWSDEIKIHSQNMGRSPVCSVCGNRM
B1: the “apparent KM, enzyme-coupled pyrophosphate release assay (steady-state kinetics)” value in data set [6] is reported as 8.9 ± 0.9 µM.

(Values after patent US20250346938A1, “ATP-DEPENDENT C-TERMINAL MODIFICATION OF POLYPEPTIDES” (Wisconsin Alumni Research Foundation, priority 2024, published 2025).)
